Assay results published in US12043600B2, “Microbiocidal compounds” (SYNGENTA CROP PROTECTION AG, priority 2018, dated 2024).
Where two headings read alike, the source gives them in different places.

Legend:
Alternaria solani = assay: Alternaria solani/Tomato/Leaf Disc (Early Blight); assay type: in vivo; settings: foliar, tomato leaf disc, compared to untreated control
Summary of the method: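 Protective leaf-disc test: compound sprayed onto tomato cv. Baby disks, spore inoculation following after 2 days. Disks kept at 80% rh, 12/12 h light/dark, 23° C. day and 21° C. night; activity read as percent disease control relative to untreated checks 5-7 days post-application.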

[1] = test system: Botryotinia fuckeliana (Botrytis cinerea); assay: Botryotinia fuckeliana (Botrytis cinerea)/Liquid Culture (Gray Mould); assay type: cell-based; settings: liquid culture, compared to untreated control
Description: Conidia of the fungus from cryogenic storage are directly mixed into nutrient broth (Vogels broth). After placing a (DMSO) solution of test compound into a microtiter plate (96-well format), the nutrient broth containing the fungal spores is added.

[2] = test system: Glomerella lagenarium (Colletotrichum lagenarium); assay: Glomerella lagenarium (Colletotrichum lagenarium)/Liquid Culture (Anthracnose); assay type: cell-based; settings: Colletotrichum orbiculare, liquid culture, compared to untreated control
[3] = test system: Phaeosphaeria nodorum (Septoria nodorum); assay: Phaeosphaeria nodorum (Septoria nodorum)/Wheat/Leaf Disc Preventative (Glume Blotch); assay type: in vivo; settings: Parastagonospora nodorum, foliar, wheat leaf disc preventative, compared to untreated control
Summary of the method: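 Preventative test: compound spray first, then spore inoculation after 2 days on cv. Kanzler wheat leaf segments. Incubation in a climate cabinet at 20 °C and 75% rh under a 12 h light/12 h dark cycle. Activity rated as % control relative to untreated discs at 5–7 days post-application.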

[4] = test system: Monographella nivalis (Microdochium nivale); assay: Monographella nivalis (Microdochium nivale)/Liquid Culture (Foot Rot Cereals); assay type: cell-based; settings: liquid culture, compared to untreated control
Summary of the method: (§1)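 Liquid-culture format using potato dextrose broth inoculated directly with cryopreserved conidia, dosed with compound from a DMSO solution.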

[5] = test system: Mycosphaerella arachidis (Cercospora arachidicola); assay: Mycosphaerella arachidis (Cercospora arachidicola)/Liquid Culture (Early Leaf Spot); assay type: cell-based; settings: liquid culture, compared to untreated control
Summary of the method: as §1

Phakopsora pachyrhizi = assay: Phakopsora pachyrhizi/Soybean/Preventative (Soybean Rust); assay type: in vivo; settings: 288 h
Phytophthora infestans = assay: whole plant or invertebrate; assay type: in vivo; settings: in Solanum lycopersicum, foliar, read-out: control of Phytophthora infestans
Plasmopara viticola = assay: whole plant or invertebrate; assay type: in vivo; settings: foliar, read-out: control of Plasmopara viticola
[6] = test system: Puccinia recondita f. sp. tritici; assay: Puccinia recondita f. sp. tritici/Wheat/Leaf Disc Curative (Brown Rust); assay type: in vivo; settings: foliar, wheat leaf disc curative, compared to untreated control
Summary of the method: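 Formulated compound, diluted in water, is applied to inoculated wheat cv. Kanzler leaf segments on agar one day post-inoculation (pre-incubation dark, 19° C, 75% rh). After 6-8 days at 19° C, 75% rh and 12 h/12 h light, activity is rated as percent disease control relative to untreated segments.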

[7] = test system: Puccinia recondita f. sp. tritici; assay: Puccinia recondita f. sp. tritici/Wheat/Leaf Disc Preventative (Brown Rust); assay type: in vivo; settings: foliar, 200 ppm, wheat leaf disc preventative, compared to untreated control, read-out: control of Puccinia recondita f. sp. tritici
[8] = test system: Magnaporthe grisea (Pyricularia oryzae); assay: whole plant or invertebrate; assay type: in vivo; settings: foliar, read-out: control of Magnaporthe grisea
[9] = test system: Thanatephorus cucumeris (Rhizoctonia solani); assay: Thanatephorus cucumeris (Rhizoctonia solani)/Liquid Culture (Foot Rot, Damping-Off); assay type: cell-based; settings: liquid culture, compared to untreated control
Description: Mycelia fragments of a newly grown liquid culture of the fungus are directly mixed into nutrient broth (PDB potato dextrose broth). After placing a (DMSO) solution of the test compounds into a microtiter plate (96-well format), the nutrient broth containing the fungal material is added.

[10] = test system: Mycosphaerella graminicola (Septoria tritici); assay: Mycosphaerella graminicola (Septoria tritici)/Liquid Culture (Septoria Blotch); assay type: cell-based; settings: Zymoseptoria tritici; 20 ppm; liquid culture; compared to untreated control
Summary of the method: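 Results given as % disease control: test compound in DMSO was placed in wells first, then potato dextrose broth carrying cryostored fungal conidia was added.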

[11] = test system: Blumeria graminis f. sp. tritici (Erysiphe graminis f. sp. tritici); assay: Blumeria graminis f. sp. tritici/Wheat/Leaf Disc Preventative (Powdery Mildew on Wheat); assay type: in vivo; settings: foliar, wheat leaf disc preventative, compared to untreated control
Summary of the method: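 Preventative leaf-disc test: percent disease control versus untreated leaf segments read 6-8 days post-application. Compound spray applied to wheat cv. Kanzler segments on agar one day before shaking infected plants over them; incubation at 20° C and 60% rh, 24 h darkness then 12 h light/12 h dark cycles.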

Pyrenophora teres = assay: Pyrenophora teres/Barley/Leaf Disc Preventative (Net Blotch); assay type: in vivo; settings: foliar, 200 ppm, barley leaf disc preventative, compared to untreated control, read-out: control of Pyrenophora teres
Summary of the method: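 Preventative leaf-disc test: inoculation with fungal spores took place 2 days after spraying segments of barley cv. Hasso, placed on agar, with water-diluted formulated compound. Read-out is % disease control per compound.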

[12] = Photostability assay (Atlas Suntest); assay type: physicochemical; settings: Suntest 750 W/m^2, spotted on microscope slides
Description: The testing method to measure the photostability data of each compound in table is D1 is as specifically described below. The objective of the photostability assay was to determine the stability of the individual test compounds in a strictly controlled and reproducible environment allowing a comparison of their photostability.
Method: Compounds were dissolved in methanol (HPLC grade) to give 1 g/L stock solutions. Compound stock solution (2 μl) was spotted onto microscope slides in a 3D printed holder and put into the Atlas Suntest. The spectral output power of the Suntest was set to 750 W/m^2, which is considered typical of the daily maximum (noon) irradiance level on a very bright British Summer day. At specific time points slides were removed from the Suntest and placed in 4D vials. Wash solvent made up of 50:40:10 H2O:MeCN:THF (1 mL) is then added to the vials and whirlimixed. The resulting solution is then subsampled to an HPLC vial to be analysed. A Waters UPLC system with Photodiode Array was used with a Waters reverse phase column (BEH C18, 100×2.1 mm×1.7 μm) and acetonitrile (HPLC grade) acidified water (0.2% formic acid) mobile phase at a flow rate of 0.6 mL/min. Peak detection was at the optimum wavelength and peak areas were used for quantification
Initial and subsequent measurements of peak area attributable to the test compound were used to provide a % parent remaining at 3 hours.

[13] = Phakopsora pachyrhizi (Soybean rust)
[14] = Phakopsora pachyrhizi (Soybean rust), read-out: control (%)

Row | Compound | pest or weed control at 200 ppm (Alternaria solani) | inhibition of growth at 20 ppm [1] | inhibition of growth at 20 ppm [2] | pest or weed control at 200 ppm [3] | inhibition of growth at 20 ppm [4] | inhibition of growth at 20 ppm [5] | pest or weed control at 200 ppm (Phytophthora infestans) | pest or weed control at 200 ppm (Plasmopara viticola) | pest or weed control at 200 ppm [6] | pest or weed control at 200 ppm [7] | pest or weed control at 200 ppm [8] | inhibition of growth at 20 ppm [9] | inhibition of growth at 20 ppm [10] | melting point | pest or weed control at 200 ppm [11] | pest or weed control at 200 ppm (Pyrenophora teres) | % Parent Remaining @ 3 hrs [12] | other results
1 | CO/C=C(\Oc1cc(-n2ccc(C(C)=NOC)n2)ccc1C)C(=O)OC [Compound E-30, methyl (Z)-3-methoxy-2-[5-[3-(N-methoxy-C-methyl-carbonimidoyl)pyrazol-1-yl]-2-methyl-phenoxy]prop-2-enoate] | ≥ 80% | ≥ 80% | ≥ 80% | ≥ 80% | ≥ 80% | ≥ 80% | ≥ 80% | ≥ 80% | ≥ 80% | ≥ 80% | ≥ 80% | ≥ 80% | ≥ 80% | 130 to 133 °C | – | – | – | pest or weed control at 200 ppm (Phakopsora pachyrhizi; foliar, soybean leaf disc preventative, compared to untreated control, read-out: control of Phakopsora pachyrhizi): ≥ 50%
2 | CO/C=C(\Oc1cc(C)cc(-n2ccc(C(F)(F)F)n2)c1)C(=O)OC [Compound E-34, methyl (Z)-3-methoxy-2-[3-methyl-5-[3-(trifluoromethyl)pyrazol-1-yl]phenoxy]prop-2-enoate] | ≥ 80% | ≥ 80% | ≥ 80% | – | ≥ 80% | ≥ 80% | ≥ 80% | ≥ 80% | – | ≥ 80% | ≥ 80% | ≥ 80% | ≥ 80% | – | ≥ 80% | ≥ 80% | – | –
3 | CO/C=C(\Oc1cc(-n2ccc(C3=CCCCC3)n2)ccc1C)C(=O)OC [Compound E-39, methyl (Z)-2-[5-[3-(cyclohexen-1-yl)pyrazol-1-yl]-2-methyl-phenoxy]-3-methoxy-prop-2-enoate] | ≥ 80% | ≥ 80% | ≥ 80% | – | ≥ 80% | ≥ 80% | ≥ 80% | ≥ 80% | ≥ 80% | ≥ 80% | ≥ 80% | ≥ 80% | ≥ 80% | 108 to 110 °C | ≥ 80% | ≥ 80% | – | –
4 | CO/C=C(\Oc1cc(-n2ccc(C(C)C)n2)c(F)cc1C)C(=O)OC [Compound E-41, methyl (Z)-2-[4-fluoro-5-(3-isopropylpyrazol-1-yl)-2-methyl-phenoxy]-3-methoxy-prop-2-enoate] | – | – | ≥ 80% | – | ≥ 80% | ≥ 80% | – | ≥ 80% | ≥ 80% | ≥ 80% | ≥ 80% | ≥ 80% | ≥ 80% | – | ≥ 80% | – | 28% | –
5 | CO/C=C(\Oc1cc(-n2ccc(OC(C)C)n2)ccc1C)C(=O)OC [Compound E-70, methyl (Z)-2-[5-(3-isopropoxypyrazol-1-yl)-2-methyl-phenoxy]-3-methoxy-prop-2-enoate] | ≥ 80% | – | ≥ 80% | ≥ 80% | ≥ 80% | ≥ 80% | ≥ 80% | ≥ 80% | – | – | ≥ 80% | – | ≥ 80% | 94 to 97 °C | ≥ 80% | ≥ 80% | 25% | –
6 | CO/C=C(\Oc1cc(-n2ccc(C3CCC3)n2)ccc1C)C(=O)OC [Compound E-88, methyl (Z)-2-[5-(3-cyclobutylpyrazol-1-yl)-2-methyl-phenoxy]-3-methoxy-prop-2-enoate] | ≥ 80% | ≥ 80% | ≥ 80% | ≥ 80% | ≥ 80% | ≥ 80% | ≥ 80% | ≥ 80% | – | – | ≥ 80% | – | ≥ 80% | 91 to 94 °C | ≥ 80% | – | 34% | –
7 | CO/C=C(\Oc1cc(-n2ccc(CC(C)C)n2)ccc1C)C(=O)OC [Compound E-90, methyl (Z)-2-[5-(3-isobutylpyrazol-1-yl)-2-methyl-phenoxy]-3-methoxy-prop-2-enoate] | – | ≥ 80% | ≥ 80% | ≥ 80% | ≥ 80% | ≥ 80% | ≥ 80% | ≥ 80% | – | – | ≥ 80% | – | ≥ 80% | 76 to 80 °C | ≥ 80% | – | 42% | –
8 | CO/C=C(\Oc1cc(-n2ccc(C(F)(F)F)n2)ccc1C)C(=O)OC [Compound E-105, methyl (Z)-3-methoxy-2-[2-methyl-5-[3-(trifluoromethyl)pyrazol-1-yl]phenoxy]prop-2-enoate] | ≥ 80% | ≥ 80% | ≥ 80% | ≥ 80% | ≥ 80% | ≥ 80% | – | ≥ 80% | – | – | ≥ 80% | – | ≥ 80% | 154 to 156 °C | ≥ 80% | ≥ 80% | 74% | pest or weed control at 0.6 ppm (Phakopsora pachyrhizi; [13]): 0%; pest or weed control at 2 ppm (Phakopsora pachyrhizi; [13]): 0%; pest or weed control at 6 ppm (Phakopsora pachyrhizi; [13]): 20%; pest or weed control at 20 ppm (Phakopsora pachyrhizi; [13]): 95%; pest or weed control at 60 ppm (Phakopsora pachyrhizi; [13]): 100%; pest or weed control at 200 ppm (Phakopsora pachyrhizi; [14]): 100%
9 | CO/C=C(\Oc1cccc(-n2cccc2)c1)C(=O)OC [Compound X-1, reference compound] | – | – | – | – | – | – | – | – | – | – | – | – | – | – | – | – | 9% | pest or weed control at 0.6 ppm (Phakopsora pachyrhizi; [13]): 0%; pest or weed control at 2 ppm (Phakopsora pachyrhizi; [13]): 0%; pest or weed control at 6 ppm (Phakopsora pachyrhizi; [13]): 0%; pest or weed control at 20 ppm (Phakopsora pachyrhizi; [13]): 10%; pest or weed control at 60 ppm (Phakopsora pachyrhizi; [13]): 10%; pest or weed control at 200 ppm (Phakopsora pachyrhizi; [14]): 45%
